Experimental data from patent US11731974B2, “N-acyl-(3-substituted)-(8-substituted)-5,6-dihydro-[1,2,4]triazolo[4,3-a]pyrazines as selective NK-3 receptor antagonists” (Ogeda SA, priority 2013, dated 2023).

Tests used:
circulating LH levels = experiment: Castrated male rat model, circulating levels of luteinizing hormone (LH); format: in vivo; details: single oral dose less than or equal to 30 mg/kg, p<0.05
Experimental: In Vivo Assay to Assess Compound Activity in Rat (Oral Dosing)
Castrated male rat model to assess the effect of compound of invention on circulating levels of luteinizing hormone (LH)
The effect of compounds of the invention to inhibit luteinizing hormone (LH) secretion is determined by the following biological studies.
In humans and rodents, castration is well-precedented to permit heightened, persistent GnRH signaling and consequent elevation of circulating LH. Thus, a castrated rat model is used to provide a broad index for measurement of LH inhibition as a marker of test compound inhibition of the GnRH signaling pathway.
Castrated adult male Sprague-Dawley (SD) rats (150-175 g) were purchased from Janvier (St Berthevin, France). All animals were housed 2 per cage in a temperature-controlled room (22±2° C.) and 50±5% relative humidity with a 12 hour/12 hour light/dark cycles (lights off at 6 h00 pm). The animals were allowed 3 weeks of postoperative recovery prior to study. Animals were handled on a daily basis. Standard diet and tap water were provided ad libitum. Animal cage litters were changed once a week. On the study day, animals were acclimated to the procedure room for a period of one hour prior to the initiation of the experiment.
Compounds of the invention were formulated in 0.5% methyl cellulose.
After basal sampling (TO) a single dose of compounds of the invention or vehicle was administrated orally to rats. Blood samples were then collected at several time points post dosing (45, 90, 150, 300 and 420 minutes). Blood samples were obtained via tail vein bleed, drawn into EDTA-containing tubes and centrifuged immediately. Plasma samples were collected and stored in a −80° C. freezer until assayed. Serum LH levels were determined using radioimmunoassay kit from RIAZEN—Rat LH, Zentech (Liege, Belgium). Baseline was defined as the initial basal blood sample.

plasma estradiol = experiment: Estradiol circulating level in female rats; format: in vivo, rat; details: 10 mg/kg b.i.d. oral, two consecutive estrous cycles, FIG. 3
Experimental: Effect of compounds of the invention on Estradiol circulating level in female rats. The aim of this study was to evaluate the effect of compounds of the invention on plasma estradiol levels following oral administration at 10 mg/kg (b.i.d.) for a period of 10 days in female rats.
(§1) Briefly the experimental methods used for this study were as follows:
Two groups of adult, female rats (Sprague-Dawley, ˜320 g) were treated in-phase with their individual estrous cycles. […] Compounds of the invention were prepared in a dose formulation of pyrogen-free water with 0.5% methylcellulose. Estradiol levels were determined for all groups by ELISA performed on plasma samples derived from blood collections taken at 30 minutes before the daily, 9 h30 test article administration on all days presented in FIG. 3.

[1] = tested on: serum TT, LH, FSH in women with PCOS; experiment: Phase 2a clinical trial, PolyCystic Ovary Syndrome (PCOS); format: in vivo, human; details: 180 mg QD
Experimental: The Phase 2a trial was double blind and randomized.
Blood draws for LH, FSH and TT were taken every visit between 2 and 8 hours after drug intake (baseline and week 3-6-12). […] These blood draws were the basis for assessing the primary (TT) and secondary (LH, FSH, LH:FSH ratio) endpoints. The primary endpoint of Total Testosterone was measured according to GLP using an LC-MS/MS method.
PCOS is typically characterized by excessive ovarian androgen production, failure of ovulation, and slightly enlarged ovaries with numerous peripheral small follicles that appear as cysts. The disorder is commonly accompanied by infertility. Typically, the clinical features of PCOS are associated with hypersecretion of LH and androgens (TT) but with normal serum concentrations of FSH hormone.
Statistical analyses performed by 2-way ANOVA comparing placebo to treatment.

plasma testosterone = experiment: Plasma testosterone in gonad intact male rats; format: in vivo, rat; details: 3 mg/kg single oral, vs vehicle, FIG. 1
Experimental: The study was designed to evaluate the effect of compounds of the invention on testosterone circulating levels following oral administration at 3 mg/kg on SD gonad intact male rats.
as §1
Two groups of non-fasted rats (male, Sprague-Dawley, 200 to 225 g; n=4 rats/group) with jugular vein cannulation, were dosed via a single oral administration of compounds of the invention at 3 mg/kg. The control group was dosed with the vehicle. Compounds of the invention were prepared in a dose formulation of pyrogen-free water with 0.5% methylcellulose. Blood samples were collected via the catheter implanted in the jugular vein at pre-determined intervals using EDTA-3K as anti-coagulant. Samples were chilled and rapidly processed by centrifugation to obtain corresponding plasma samples. Testosterone hormone levels were determined by RIA performed on plasma samples collected for all the groups at 5 minutes before administration (basal time), and at 45, 90, 150, 300, 480 minutes and 24 hours after dosing.

[2] = tested on: body temperature in ovariectomized ewes; experiment: In vivo assay in OVX ewes, thermoregulation; set-up: species or system ewe; details: 1 mg/kg intravenous
Source text: In Vivo Assay in OVX Ewes-Activity in Thermoregulation Experimental Methods: Evaluation of Thermoregulation in OVX Ewe […] After 4 months recovery, animals were acclimatised to housing in single pens for a period of 7 days with ad libitum access to water and […] lucerne hay. One day prior to experimentation, the animals received a jugular vein cannula ([…], Tuta Laboratories, Lane Cove, Australia). The cannula were kept patent with heparinised saline. […] Animals were fed at 12 h00. Rectal temperatures were monitored with a probe at hourly intervals throughout the experiment, starting at 7 h40 and concluding at 15 h40. […] However, this pyrogenic response to feeding in ovarectomized ewes was not observed in any animals treated with compound no 5. […] Graphical data presented as mean±SEM for vehicle-treated versus compound no 5-treated ewes (N=5/group). Statistical analyses performed by 2-way ANOVA followed by Sidak's Multiple Comparisons Test between treatment groups at the indicated time interval, *p<0.05. Conclusions: Ovariectomy in the ewe causes changes in core body temperature considered analogous to menopausal hot flashes ([…], Bryant, & Turner, 2003) to the extent that a transient, pyrogenic response to feeding is observed (Henry, Dunshea, Gould, & Clarke, 2008).

Compound | circulating LH levels (circulating LH levels) | also measured
Cc1nsc(-c2nnc3n2CCN(C(=O)c2ccc(F)c(F)c2)[C@@H]3C)n1 [Compound 9, (R)-(3,4-difluorophenyl)(8-methyl-3-(3-methyl-1,2,4-thiadiazol-5-yl)-5,6-dihydro-[1,2,4]triazolo[4,3-a]pyrazin-7(8H)-yl)methanone] | significantly suppressed | –
Cc1nsc(-c2nnc3n2CCN(C(=O)c2ccc(Cl)c(Cl)c2)[C@@H]3C)n1 [Compound 1, (R)-(3,4-dichlorophenyl)(8-methyl-3-(3-methyl-1,2,4-thiadiazol-5-yl)-5,6-dihydro-[1,2,4]triazolo[4,3-a]pyrazin-7(8H)-yl)methanone] | significantly suppressed | –
Cc1nsc(-c2nnc3n2CCN(C(=O)c2ccc(Cl)c(F)c2)[C@@H]3C)n1 [Compound 4, (R)-(4-chloro-3-fluorophenyl)(8-methyl-3-(3-methyl-1,2,4-thiadiazol-5-yl)-5,6-dihydro-[1,2,4]triazolo[4,3-a]pyrazin-7(8H)-yl)methanone] | significantly suppressed | –
CCc1nsc(-c2nnc3n2CCN(C(=O)c2ccc(F)cc2)[C@@H]3C)n1 [Compound 2, (R)-(3-(3-ethyl-1,2,4-thiadiazol-5-yl)-8-methyl-5,6-dihydro-[1,2,4]triazolo[4,3-a]pyrazin-7(8H)-yl)(4-fluorophenyl)methanone] | significantly suppressed | –
Cc1nsc(-c2nnc3n2CCN(C(=O)c2ccccc2)[C@@H]3C)n1 [Compound 20, (R)-(8-methyl-3-(3-methyl-1,2,4-thiadiazol-5-yl)-5,6-dihydro-[1,2,4]triazolo[4,3-a]pyrazin-7(8H)-yl)(phenyl)methanone] | significantly suppressed | –
Cc1nsc(-c2nnc3n2CCN(C(=O)c2ccc(F)cc2)[C@@H]3C)n1 [Compound 5, (R)-(4-fluorophenyl)(8-methyl-3-(3-methyl-1,2,4-thiadiazol-5-yl)-5,6-dihydro-[1,2,4]triazolo[4,3-a]pyrazin-7(8H)-yl)methanone] | significantly suppressed | estradiol levels (plasma estradiol): significantly decreased; FSH secretion [1]: preserved; LH [1]: significant decrease; LH:FSH in comparison of placebo [1]: significantly reduced; TT in comparison of placebo [1]: significantly reduced; plasma testosterone level (plasma testosterone): significantly suppressed; pyrogenic response to feeding [2]: not observed
CCc1noc(-c2nnc3n2CCN(C(=O)c2ccc(-c4cccs4)cc2)[C@@H]3C)n1 [Compound 30, (R)-(3-(3-ethyl-1,2,4-oxadiazol-5-yl)-8-methyl-5,6-dihydro-[1,2,4]triazolo[4,3-a]pyrazin-7(8H)-yl)(4-(thiophen-2-yl)phenyl)methanone] | significantly suppressed | –
CCc1noc(-c2nnc3n2CCN(C(=O)c2ccc(F)cc2)[C@@H]3C)n1 [Compound 13, (R)-(3-(3-ethyl-1,2,4-oxadiazol-5-yl)-8-methyl-5,6-dihydro-[1,2,4]triazolo[4,3-a]pyrazin-7(8H)-yl)(4-fluorophenyl)methanone] | significantly suppressed | –
Cc1nsc(-c2nnc3n2CCN(C(=O)c2ccc(F)c(F)c2F)[C@@H]3C)n1 [Compound 8, (R)-(8-methyl-3-(3-methyl-1,2,4-thiadiazol-5-yl)-5,6-dihydro-[1,2,4]triazolo[4,3-a]pyrazin-7(8H)-yl)(2,3,4-trifluorophenyl)methanone] | significantly suppressed | –
